Experimental data published in US20210347709A1, “RADIOFLUORINATED GPC3-BINDING PEPTIDES FOR PET IMAGING OF HEPATOCELLULAR CARCINOMA” (University of Southern California, priority 2020, published 2021).
Read-outs that look alike come from different tables or passages of the source.

Key:
[1] = Measurement of lipophilicity (Log P), 1-octanol/PBS partition; format: physicochemical; settings: 1-octanol / PBS pH 7.4, mean ± SD, n = 4
Method: Measurement of Lipophilicity (Log P). Approximately 185 kBq of Al[^18F]F-GP2076 or Al[^18F]F-GP2633 in 0.5 ml of phosphate-buffered saline (PBS) (pH 7.4) was mixed with 0.5 ml of 1-octanol. The mixture was vigorously shaken for 1 min, and then centrifuged at 12,000 rpm for 5 min to partition the organic and aqueous layers. Aliquots of 0.2 ml each layer were taken and the radioactivity was determined by gamma counting (GC-1200, USTC Chuangxin Co. Ltd. Zonkia Branch, China). The distribution coefficient P was calculated as the ratio of radioactivity in the organic phase to that in the aqueous phase. The experiment was carried out in quadruplicate.

[2] = MicroPET/CT imaging and biodistribution, HepG2 tumor model; format: in vivo, nude mice; settings: both sexes, BALB/c nude, mouse, iv, 5.55 MBq, total radioactivity; for tissue to tissue ratio at 1 h / tissue to tissue ratio at 0.5 h / tissue to tissue ratio at 2 h: HepG2 (GPC3+) tumor bearing mice; for tissue to tissue ratio at 1 h / tissue uptake at 1 h: 60 min; for tissue to tissue ratio at 0.5 h / tissue uptake at 0.5 h: 30 min; for tissue to tissue ratio at 2 h / tissue uptake at 2 h: 120 min; for tissue uptake at 0.5 h / tissue uptake at 1 h / tissue uptake at 2 h: HepG2 (GPC3+) tumor model, PET
Method: (§1) MicroPET/CT Imaging and Biodistribution. MicroPET/CT scans were carried out using a Siemens Inveon PET/CT scanner (Siemens, Germany). Tumor-bearing mice (n=3/group) were intravenously injected with 5.55 MBq of Al[^18F]F-GP2076 or Al[^18F]F-GP2633 under isoflurane anesthesia. A ten-minute static PET scan for each animal was acquired at 30, 60, and 120 min after the injection. 3-Dimensional ordered subset expectation maximization (3D-OSEM) algorithm was used for the PET reconstruction, and CT was applied for attenuation correction. Detailed procedures for the microPET/CT imaging and biodistribution are provided in ESM.
(§2) All animal experiments were conducted according to the guideline of the Nanfang Hospital Animal Ethics Committee at the Southern Medical University. Male or female BALB/c nude mice (about 4-6 weeks old) were obtained from the Laboratory Animal Center at Southern Medical University. The HepG2 and McA-RH7777 HCC xenografts were established by subcutaneous injection of 1×10^6 tumor cells into the left shoulder of nude mice. The animals were used for in vivo studies when the tumors reached a size of 0.5-1 cm in diameter (4-6 weeks after inoculation).
(§3) Inveon Research Workplace (IRW) 3.0 software (Siemens, Germany) was used to measure the regions of interest (ROIs) determined by superimposing the ellipsoid volume of interest (VOI) on the target tissues. The radioactivity concentrations were measured by the mean pixel intensity within each VOI and converted to dose/ml using a calibration constant. Assuming the tissue density of 1 g/ml, the ROI was then converted to dose per gram and normalized as the percent injected dose per gram (% ID/g). Tumor-to-nontarget uptake ratios, including tumor-to-muscle (T/M), tumor-to-liver (T/L), and tumor-to-kidneys (T/K) ratios, were calculated by dividing the radioactivity uptake in tumor by that in the corresponding normal tissue or organ.

[3] = test system: GPC3-positive HepG2 tumor; assay: as above; format: in vivo, nude mice; settings: for Tumor-to-kidneys (T/K) uptake ratio / Tumor-to-liver (T/L) uptake ratio / Tumor-to-muscle (T/M) uptake ratio: HepG2 (GPC3+) tumor bearing mice; for Kidneys uptake / Liver uptake / Tumor uptake: HepG2 (GPC3+) tumor model; for Tumor uptake: decay-corrected
Method: as §1, §2, §3

[4] = Ex vivo biodistribution in HepG2 tumor bearing nude mice; settings: both sexes, BALB/c nude, mouse, iv, 1.85 MBq, total radioactivity, 1 h post-injection, gamma counting
Method: as §2
(§4) Ex vivo biodistribution was evaluated at 60 min after the tail vein injection of 1.85 MBq of Al[^18F]F-GP2076 or Al[^18F]F-GP2633. Mice were euthanized and dissected. Major tissues and organs were collected and weighed wet. The radioactivity in the tissues and organs was measured using a gamma counter. The results were presented as % ID/g. For each animal, the radioactivity of the tissue and organ samples was calibrated with a known aliquot of the injected activity. Mean uptake (% ID/g) for a group of animals was calculated with standard deviations.

HepG2 tumor = assay: as above; settings: 1 h post-injection, gamma counting
Method: as §2, §4

[5] = HepG2 tumor / liver, read-out: Tumor-to-liver (T/L) uptake ratio
[6] = HepG2 tumor / muscle, read-out: Tumor-to-muscle (T/M) uptake ratio
[7] = intestine, read-out: Intestinal uptake
[8] = decay-corrected, read-out: Tumor uptake
[9] = kidneys, read-out: Kidneys uptake
[10] = muscle, read-out: Muscle uptake
[11] = tumor / kidneys, read-out: Tumor-to-kidneys (T/K) uptake ratio

CC(C)C[C@H](NC(=O)[C@H](CCCNC(=N)N)NC(=O)[C@H](CC(N)=O)NC(=O)[C@H](CC(=O)O)NC(=O)[C@H](CCCNC(=N)N)NC(=O)CNC(=O)CNC(=O)CNC(=S)Nc1ccc(CC2CN(CC(=O)O)CCN(CC(=O)O)CCN2CC(=O)O)cc1)C(=O)N[C@@H](CC(N)=O)C(=O)N[C@H](C(=O)NCC(=O)NCC(=O)N[C@H](C(=O)N[C@@H](Cc1ccc(O)cc1)C(=O)N[C@@H](Cc1ccccc1)C(=O)N[C@@H](CC(C)C)C(=O)N[C@H](C(=O)N[C@H](C(=O)N[C@@H](CCCNC(=N)N)C(=O)N[C@@H](CCC(N)=O)C(=O)O)[C@@H](C)O)[C@@H](C)O)[C@@H](C)O)C(C)C (single isomer, unassigned) [Al[^18F]F-GP2633]
logP [1]: -2.42 ± 0.09 | tissue to tissue ratio at 1 h ([2]; HepG2 tumor / kidneys, read-out: Tumor-to-kidneys (T/K) uptake ratio): 0.09 ± 0.01 | tissue to tissue ratio at 0.5 h [2, 5]: 1.77 ± 0.2 | tissue to tissue ratio at 1 h [2, 5]: 2 ± 0.18 | tissue to tissue ratio at 2 h [2, 5]: 1.28 ± 0.25 | tissue to tissue ratio at 0.5 h [2, 6]: 9.11 ± 0.79 | tissue to tissue ratio at 1 h [2, 6]: 12.2 ± 0.62 | tissue to tissue ratio at 2 h [2, 6]: 6.2 ± 1.8 | tissue uptake at 0.5 h ([2]; bone, read-out: Bone uptake): 0.47 %ID/g | tissue uptake at 1 h ([2]; bone, read-out: Bone uptake): 0.43 %ID/g | tissue uptake at 2 h ([2]; bone, read-out: Bone uptake): 0.55 %ID/g | tissue uptake at 0.5 h ([2]; brain, read-out: Brain uptake): 0.1 %ID/g | tissue uptake at 1 h ([2]; brain, read-out: Brain uptake): 0.11 %ID/g | tissue uptake at 2 h ([2]; brain, read-out: Brain uptake): 0.22 %ID/g | tissue uptake at 0.5 h ([2]; heart, read-out: Heart uptake): 1.04 %ID/g | tissue uptake at 1 h ([2]; heart, read-out: Heart uptake): 0.91 %ID/g | tissue uptake at 2 h ([2]; heart, read-out: Heart uptake): 0.37 %ID/g | tissue uptake at 0.5 h [2, 7]: 1.09 %ID/g | tissue uptake at 1 h [2, 7]: 1.3 %ID/g | tissue uptake at 2 h [2, 7]: 0.46 %ID/g | tissue uptake at 0.5 h [2, 8]: 3.13 %ID/g | tissue uptake at 1 h [2, 8]: 3.37 %ID/g | tissue uptake at 2 h [2, 8]: 1.3 %ID/g | tissue uptake at 0.5 h [2, 9]: 39.4 %ID/g | tissue uptake at 1 h [2, 9]: 36.9 %ID/g | tissue uptake at 2 h [2, 9]: 29.3 %ID/g | tissue uptake at 0.5 h ([2]; liver, read-out: Liver uptake): 1.8 %ID/g | tissue uptake at 1 h ([2]; liver, read-out: Liver uptake): 1.7 %ID/g | tissue uptake at 2 h ([2]; liver, read-out: Liver uptake): 1.04 %ID/g | tissue uptake at 0.5 h ([2]; lung, read-out: Lung uptake): 0.69 %ID/g | tissue uptake at 1 h ([2]; lung, read-out: Lung uptake): 0.59 %ID/g | tissue uptake at 2 h ([2]; lung, read-out: Lung uptake): 0.34 %ID/g | tissue uptake at 0.5 h [2, 10]: 0.35 %ID/g | tissue uptake at 1 h [2, 10]: 0.28 %ID/g | tissue uptake at 2 h [2, 10]: 0.22 %ID/g | tissue to tissue ratio at 0.5 h [2, 11]: 0.08 ± 0.01 | tissue to tissue ratio at 2 h [2, 11]: 0.04 ± 0.01 | Tumor-to-kidneys (T/K) uptake ratio ([3]; 30 min): 0.08 ± 0.01 | Tumor-to-liver (T/L) uptake ratio ([3]; 30 min): 1.77 ±0.20 | Tumor-to-muscle (T/M) uptake ratio ([3]; 30 min): 9.11±0.79 | Tumor-to-kidneys (T/K) uptake ratio ([3]; 60 min): 0.09±0.01 | Tumor-to-liver (T/L) uptake ratio ([3]; 60 min): 2.00±0.18 | Tumor-to-muscle (T/M) uptake ratio ([3]; 60 min): 12.17±0.62 | Tumor-to-kidneys (T/K) uptake ratio ([3]; 120 min): 0.04 ± 0.01 | Tumor-to-liver (T/L) uptake ratio ([3]; 120 min): 1.28±0.25 | Tumor-to-muscle (T/M) uptake ratio ([3]; 120 min): 6.20±1.80 | Kidneys uptake ([3]; 30 min, PET): 39.40±0.98 % ID/g | Liver uptake ([3]; 30 min, PET): 1.80±0.36 % ID/g | Tumor uptake ([3]; 30 min, PET): 3.13±0.31 % ID/g | Kidneys uptake ([3]; 60 min, PET): 36.86±2.05 % ID/g | Liver uptake ([3]; 60 min, PET): 1.70±0.26 % ID/g | Tumor uptake ([3]; 60 min, PET): 3.37±0.35 % ID/g | Kidneys uptake ([3]; 120 min, PET): 29.27 ± 3.31 % ID/g | Liver uptake ([3]; 120 min, PET): 1.04 ± 0.20 % ID/g | Tumor uptake ([3]; 120 min, PET): 1.30±0.17 % ID/g | defluorination in vivo (from low bone uptake) ([3]; PET, bone uptake): did not occur | clearance / excretion route from the mouse body ([3]; as visualized by PET images): predominantly through the renal system | tissue uptake at 1 h ([4]; HepG2 tumor, read-out: HepG2 Tumor uptake, ex vivo biodistribution): 1.96 ± 0.29 %ID/g | tissue uptake at 1 h ([4]; blood, read-out: Blood uptake, ex vivo biodistribution): 0.45 ± 0.12 %ID/g | tissue uptake at 1 h ([4]; bone, read-out: Bone uptake, ex vivo biodistribution): 0.36 ± 0.08 %ID/g | tissue uptake at 1 h ([4]; brain, read-out: Brain uptake, ex vivo biodistribution): 0.12 ± 0.12 %ID/g | tissue uptake at 1 h ([4]; heart, read-out: Heart uptake, ex vivo biodistribution): 0.39 ± 0.27 %ID/g | tissue uptake at 1 h ([4]; kidneys, read-out: Kidneys uptake, ex vivo biodistribution): 37 ± 4.7 %ID/g | tissue uptake at 1 h ([4]; liver, read-out: Liver uptake, ex vivo biodistribution): 0.97 ± 0.07 %ID/g | tissue uptake at 1 h ([4]; muscle, read-out: Muscle uptake, ex vivo biodistribution): 0.31 ± 0.05 %ID/g | HepG2 Tumor uptake, ex vivo biodistribution (HepG2 tumor): 1.96±0.29 % ID/g | Liver uptake, ex vivo biodistribution (HepG2 tumor): 0.97±0.07 % ID/g
